Experimental data published in patent US9732032B2, “3-aminocyclopentane carboxamide derivatives” (Merck Patent GmbH, priority 2012, dated 2017).
pIC50: −log10 of the molar value.

These molecules were tested against T1, human recombinant full-length fatty acid synthase (FASN) (Homo sapiens, UniProt P49327) (assay: Biochemical activity testing of human fatty acid synthase FASN (NADPH fluorescence intensity assay)). Settings: NADPH fluorescence decrease (ex 340 nm / em 460 nm), 30 minutes at room temperature, read-out: IC50 FASN (enzyme assay).
T1 construct: human recombinant full-length fatty acid synthase; made in house; host or cells: SF9 cells
T1 sequence (P49327 whole entry): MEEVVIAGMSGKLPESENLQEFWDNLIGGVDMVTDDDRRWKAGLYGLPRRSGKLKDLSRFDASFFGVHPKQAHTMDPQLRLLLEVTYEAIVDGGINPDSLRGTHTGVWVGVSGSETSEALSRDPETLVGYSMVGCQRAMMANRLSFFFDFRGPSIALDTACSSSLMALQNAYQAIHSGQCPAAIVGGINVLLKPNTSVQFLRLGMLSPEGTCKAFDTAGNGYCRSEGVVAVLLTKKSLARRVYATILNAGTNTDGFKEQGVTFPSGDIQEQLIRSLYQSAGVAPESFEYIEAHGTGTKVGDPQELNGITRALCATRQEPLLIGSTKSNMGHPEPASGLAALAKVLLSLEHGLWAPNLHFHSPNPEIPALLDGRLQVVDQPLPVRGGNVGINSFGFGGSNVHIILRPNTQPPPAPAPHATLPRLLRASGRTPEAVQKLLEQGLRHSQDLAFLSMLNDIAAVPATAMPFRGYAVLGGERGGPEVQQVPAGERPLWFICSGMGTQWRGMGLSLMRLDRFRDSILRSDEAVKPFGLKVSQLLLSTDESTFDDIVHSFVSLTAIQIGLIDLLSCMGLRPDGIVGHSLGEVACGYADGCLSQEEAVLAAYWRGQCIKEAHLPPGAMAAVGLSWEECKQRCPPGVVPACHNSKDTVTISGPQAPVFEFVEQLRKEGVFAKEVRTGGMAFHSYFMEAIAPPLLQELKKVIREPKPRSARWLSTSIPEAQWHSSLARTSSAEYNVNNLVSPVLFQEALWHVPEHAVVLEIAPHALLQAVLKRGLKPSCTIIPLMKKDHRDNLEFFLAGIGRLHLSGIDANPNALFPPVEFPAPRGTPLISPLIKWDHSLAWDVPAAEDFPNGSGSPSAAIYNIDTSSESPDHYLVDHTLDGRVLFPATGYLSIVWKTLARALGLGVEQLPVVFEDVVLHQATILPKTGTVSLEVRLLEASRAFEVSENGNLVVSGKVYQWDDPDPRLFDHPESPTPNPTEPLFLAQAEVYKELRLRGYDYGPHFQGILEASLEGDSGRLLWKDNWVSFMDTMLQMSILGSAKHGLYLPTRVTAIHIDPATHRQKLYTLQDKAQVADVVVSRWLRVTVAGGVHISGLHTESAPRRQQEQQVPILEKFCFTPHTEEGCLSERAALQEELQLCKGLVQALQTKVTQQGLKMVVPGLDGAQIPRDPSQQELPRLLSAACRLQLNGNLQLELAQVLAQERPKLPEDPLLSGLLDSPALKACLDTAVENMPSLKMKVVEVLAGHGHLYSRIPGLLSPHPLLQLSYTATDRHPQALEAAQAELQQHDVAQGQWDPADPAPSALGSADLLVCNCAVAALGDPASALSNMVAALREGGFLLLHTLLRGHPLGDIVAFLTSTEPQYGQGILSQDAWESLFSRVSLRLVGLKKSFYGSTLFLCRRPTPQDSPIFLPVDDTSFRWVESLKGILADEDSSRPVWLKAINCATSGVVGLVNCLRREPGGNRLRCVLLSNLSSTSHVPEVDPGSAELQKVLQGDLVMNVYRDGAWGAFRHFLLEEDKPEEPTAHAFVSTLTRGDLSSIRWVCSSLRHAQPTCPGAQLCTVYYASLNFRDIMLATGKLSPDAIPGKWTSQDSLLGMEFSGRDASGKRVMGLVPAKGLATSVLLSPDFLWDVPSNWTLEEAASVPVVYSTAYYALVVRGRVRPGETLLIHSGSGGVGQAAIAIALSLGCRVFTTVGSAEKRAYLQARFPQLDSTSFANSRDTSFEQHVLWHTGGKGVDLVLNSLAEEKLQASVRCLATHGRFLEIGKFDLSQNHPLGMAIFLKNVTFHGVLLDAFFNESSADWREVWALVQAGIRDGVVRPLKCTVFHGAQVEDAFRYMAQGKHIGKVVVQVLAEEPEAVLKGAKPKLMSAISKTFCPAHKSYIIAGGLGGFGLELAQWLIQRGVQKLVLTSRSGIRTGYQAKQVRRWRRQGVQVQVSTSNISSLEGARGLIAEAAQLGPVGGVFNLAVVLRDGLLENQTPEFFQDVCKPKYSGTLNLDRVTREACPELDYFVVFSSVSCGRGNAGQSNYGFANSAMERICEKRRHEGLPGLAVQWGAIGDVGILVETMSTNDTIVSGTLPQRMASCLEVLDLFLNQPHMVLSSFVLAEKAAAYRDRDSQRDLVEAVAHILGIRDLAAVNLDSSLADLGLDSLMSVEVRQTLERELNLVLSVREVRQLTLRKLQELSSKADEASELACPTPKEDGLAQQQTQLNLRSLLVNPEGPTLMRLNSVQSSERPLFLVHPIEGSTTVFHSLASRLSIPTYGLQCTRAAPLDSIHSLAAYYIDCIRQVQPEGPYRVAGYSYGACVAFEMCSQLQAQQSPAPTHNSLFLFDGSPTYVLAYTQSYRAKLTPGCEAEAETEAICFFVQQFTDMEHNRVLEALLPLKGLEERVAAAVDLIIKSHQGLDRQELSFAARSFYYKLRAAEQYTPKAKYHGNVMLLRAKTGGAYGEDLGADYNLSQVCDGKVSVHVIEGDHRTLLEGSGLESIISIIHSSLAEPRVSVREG
Text: aq (aqueous), h (hour), g (gram), L (liter), mg (milligram), MHz (Megahertz), (melting point), eq (equivalent), mL (milliliter), L (microliter), ACN (acetonitrile), AcOH (acetic acid), CDCl3 (deuterated chloroform), CD3OD (deuterated methanol), CH3CN (acetonitrile), c-hex (cyclohexane), DCC (dicyclohexyl carbodiimide), DCM (dichloromethane), DIC (diisopropyl carbodiimide), DIEA (diisopropylethyl-amine), DMF (dimethylformamide), DMSO (dimethylsulfoxide), DMSO-d6 (deuterated dimethylsulfoxide), EDC (1-(3-dimethyl-amino-propyl)-3-ethylcarbodiimide), ESI (Electro-spray ionization), EtOAc (ethyl acetate), Et2O (diethyl ether), EtOH (ethanol), HATU (dimethylamino-([1,2,3]triazolo[4,5-b]pyridin-3-yloxy)-methylene]-dimethylammonium hexafluorophosphate), HPLC (High Performance Liquid Chromatography), i-PrOH (2-propanol), K2CO3 (potassium carbonate), LC (Liquid Chromatography), MeOH (methanol), MgSO4 (magnesium sulfate), MS (mass spectrometry), MTBE (Methyl tert-butyl ether), NaHCO3 (sodium bicarbonate), NaBH4 (sodium borohydride), NMM (N-methyl morpholine), NMR (Nuclear Magnetic Resonance), PyBOP (benzotriazole-1-yl-oxy-trispyrrolidino-phosphonium hexafluorophosphate), RT (room temperature), Rt (retention time), SPE (solid phase extraction), TBTU (2-(1-H-benzotriazole-1-yl)-1,1,3,3-tetramethyluromium tetrafluoro borate), TEA (triethylamine), TFA (trifluoroacetic acid), THF (tetrahydrofuran), TLC (Thin Layer Chromatography), UV (Ultraviolet). Description of the In Vitro Assays Abbreviations: GST=Glutathione-S-transferase FRET=Fluorescence resonance energy transfer HTRF®=(homogenous time resolved fluorescence) HEPES=4-(2-hydroxyethyl)-1-piperazine ethanesulfonic acid buffer DTT=Dithiothreitol BSA=bovine serum albumin CHAPS=detergent; CHAPS=3[(3-cholamidopropyl)dimethylammonio]-1-propanesulfonate Biochemical Activity Testing of Human Fatty Acid Synthase FASN
Fatty acid synthase FASN is a multifunctional enzyme with seven catalytic activities thereby synthesising long chain fatty acids especially palmitoyl-CoA in the presence of co-factor NADPH starting from the substrates acetyl-CoA and malonyl-CoA. The reductive synthesis is realized by the oxidation of NADPH to NADP. Since NADPH has a high fluorescence intensity quantum yield compared to NADP with excitation at 340 nm and emission at 460 nm, the reaction can be monitored via the decrease in fluorescence intensity. The biochemical FASN activity testing was performed as 384 well two-time-point kinetic fluorescence intensity assay format in Greiner low volume medium binding 384-well black microtiter plates in a total assay volume of 8 μl and was used for high throughput screen. In each well 3 μl 40 nM human recombinant full-length fatty acid synthase (produced in-house in SF9 cells) were dispensed in the following assay buffer: 50 mM potassium phosphate buffer pH 7.0, 0.005% (w/v) BSA, 2 mM Glutathione, 0.02% Tween-20. Then 2 μl of 200 μM NADPH in assay buffer were added, followed by the addition of the test compounds in 10 dilution concentrations starting with 30 μM (final concentration) to get a final DMSO content of 1% (v/v). The mixture was incubated for at least 15 min at room temperature. After the pre-incubation the enzymatic reaction was started by the addition of 2 μl substrate solution (80 μM acetyl-CoA, 240 μM malonyl-CoA). A first fluorescence intensity measurement (time point one) was performed with an Envision multimode reader (Perkin Elmer LAS Germany GmbH) at excitation wavelength 340 nm (lamp mode) and emission wavelength 460 nm. The reaction was incubated for 30 minutes at room temperature. After this the fluorescence intensity was measured again in the Envision using the same parameters as described above (second time point measurement). The data were analysed by subtracting the first time point measurement value from the second time point measurement value (after the enzymatic reaction). The differences of the emission signals were determined. […]

Compound | pIC50
CCNC(=O)C1CC[C@@H](N(C)C(=O)c2ccc(-c3nc4cccc(F)c4o3)cc2)C1 (stereo in doubt) [Compound A100, N-((1R,3S)-3-ethylcarbamoyl-cyclopentyl)-4-(7-fluoro-benzooxazol-2-yl)-N-methyl-benzamide] | > 6.52
CCNC(=O)[C@H]1CC[C@@H](N(C)C(=O)c2ccc(-c3nc4ccccc4o3)cc2)C1 [Compound A1, 4-(1,3-benzoxazol-2-yl)-N-[(1R,3S)-3-(ethylcarbamoyl)cyclopentyl]-N-methyl-benzamide] | > 6.52
CCNC(=O)[C@H]1CC[C@@H](N(C)C(=O)c2ccc(-c3nc4ccccc4n3C)cc2)C1 [Compound A2, N-((1R,3S)-3-ethylcarbamoyl-cyclopentyl)-N-methyl-4-(1-methyl-1H-benzoimidazol-2-yl)-benzamide] | > 6.52
CCNC(=O)[C@H]1CC[C@@H](N(C)C(=O)c2ccc(-c3ccc(O[C@@H]4CCOC4)cc3)cc2)C1 [Compound A4, 4′-[(R)-(tetrahydro-furan-3-yl)oxy]-biphenyl-4-carboxylic acid ((1R,3S)-3-ethylcarbamoyl-cyclopentyl)-methyl-amide] | 5.52 to 6.52
CC(C)NC(=O)[C@H]1CC[C@@H](N(C)C(=O)c2ccc(-c3nc4ccccc4o3)cc2)C1 [Compound A5, 4-benzoxazol-2-yl-N-((1R,3S)-3-isopropylcarbamoyl-cyclopentyl)-N-methyl-benzamide] | > 6.52
CN(C(=O)c1ccc(-c2nc3ccccc3o2)cc1)[C@@H]1CC[C@H](C(=O)NC2CC2)C1 [Compound A6, 4-benzoxazol-2-yl-N-((1R,3S)-3-cyclopropylcarbamoyl-cyclopentyl)-N-methyl-benzamide] | > 6.52
CN(C(=O)c1ccc(-c2nc3ccccc3o2)cc1)[C@@H]1CC[C@H](C(=O)NC2CCCC2)C1 [Compound A7, 4-benzoxazol-2-yl-N-((1R,3S)-3-cyclopentylcarbamoyl-cyclopentyl)-N-methyl-benzamide] | > 6.52
CCNC(=O)[C@H]1CC[C@@H](N(C)C(=O)c2ccc(-c3nc4ccccc4[nH]3)cc2)C1 [Compound A11, 4-(1H-benzimidazol-2-yl)-N-[(1R,3S)-3-(ethylcarbamoyl)cyclopentyl]-N-methyl-benzamide] | > 6.52
CCNC(=O)[C@@H]1CC[C@@H](N(C)C(=O)c2ccc(-c3nc4ccccc4o3)cc2)C1 [Compound A44, 4-(1,3-benzoxazol-2-yl)-N-[(1R,3R)-3-(ethylcarbamoyl)cyclopentyl]-N-methyl-benzamide] | > 6.52
CCNC(=O)[C@H]1CC[C@@H](N(C)C(=O)c2ccc(-c3nc4ccccc4o3)c(OC)c2)C1 [Compound A45, 4-benzoxazol-2-yl-N-((1R,3S)-3-ethylcarbamoyl-cyclopentyl)-3-methoxy-N-methyl-benzamide] | > 6.52
CCNC(=O)[C@H]1CC[C@@H](N(C)C(=O)c2ccc(-c3nc4ccccc4o3)cc2OC)C1 [Compound A46, 4-benzoxazol-2-yl-N-((1R,3S)-3-ethylcarbamoyl-cyclopentyl)-2-methoxy-N-methyl-benzamide] | > 6.52
CCN(C)C(=O)[C@H]1CC[C@@H](N(C)C(=O)c2ccc(-c3nc4ccccc4o3)cc2)C1 [Compound A47, 4-benzoxazol-2-yl-N-[(1R,3S)-3-(ethyl-methyl-carbamoyl)-cyclopentyl]-N-methyl-benzamide] | 5.52 to 6.52
CCN(CC)C(=O)[C@H]1CC[C@@H](N(C)C(=O)c2ccc(-c3nc4ccccc4o3)cc2)C1 [Compound A48, 4-benzoxazol-2-yl-N-((1R,3S)-3-diethylcarbamoyl-cyclopentyl)-N-methyl-benzamide] | 5.52 to 6.52
CCNC(=O)[C@H]1CC[C@@H](N(C)C(=O)c2ccc(-c3ccc(C)cc3)cc2)C1 [Compound A49, 4′-methyl-biphenyl-4-carboxylic acid ((1R,3S)-3-ethylcarbamoyl-cyclopentyl)-methyl-amide] | > 6.52
CCNC(=O)[C@H]1CC[C@@H](N(C)C(=O)c2ccc(-c3ccccc3)cc2)C1 [Compound A50, biphenyl-4-carboxylic acid ((1R,3S)-3-ethylcarbamoyl-cyclopentyl)-methyl-amide] | > 6.52
CCNC(=O)[C@H]1CC[C@@H](N(C)C(=O)c2ccc(-c3ccccc3)cc2Cl)C1 [Compound A51, 3-chloro-biphenyl-4-carboxylic acid ((1R,3S)-3-ethylcarbamoyl-cyclopentyl)-methyl-amide] | > 6.52
CCNC(=O)[C@H]1CC[C@@H](N(C)C(=O)c2ccc(-c3nnc(OC)cc3C)cc2)C1 [Compound A52, N-((1R,3S)-3-ethylcarbamoyl-cyclopentyl)-4-(6-methoxy-4-methyl-pyridazin-3-yl)-N-methyl-benzamide] | 4.30 to 5.52
CCNC(=O)[C@H]1CC[C@@H](N(C)C(=O)c2ccc(-c3ccccc3)cn2)C1 [Compound A53, 5-phenyl-pyridine-2-carboxylic acid ((1R,3S)-3-ethylcarbamoyl-cyclopentyl)-methyl-amide] | > 6.52
CCNC(=O)[C@H]1CC[C@@H](N(C)C(=O)c2ccc(C#Cc3ccc(Cl)cc3)cc2)C1 [Compound A54, 4-(4-chloro-phenylethynyl)-N-((1R,3S)-3-ethylcarbamoyl-cyclopentyl)-N-methyl-benzamide] | > 6.52
CCNC(=O)[C@H]1CC[C@@H](N(C)C(=O)c2ccc(C#Cc3ccc(F)cc3)cc2)C1 [Compound A55, N-((1R,3S)-3-ethylcarbamoyl-cyclopentyl)-4-(4-fluoro-phenylethynyl)-N-methyl-benzamide] | > 6.52
CCNC(=O)[C@H]1CC[C@@H](N(C)C(=O)c2ccc(-c3ccncc3)cc2)C1 [Compound A56, N-((1R,3S)-3-ethylcarbamoyl-cyclopentyl)-N-methyl-4-pyridin-4-yl-benzamide] | > 6.52
CCNC(=O)[C@H]1CC[C@@H](N(C)C(=O)c2ccc(-c3ccncc3)cc2F)C1 [Compound A57, N-((1R,3S)-3-ethylcarbamoyl-cyclopentyl)-2-fluoro-N-methyl-4-pyridin-4-yl-benzamide] | > 6.52
CCNC(=O)[C@H]1CC[C@@H](N(C)C(=O)c2c(F)cc(-c3ccc(CC)cc3)cc2F)C1 [Compound A58, 4′-ethyl-3,5-difluoro-biphenyl-4-carboxylic acid ((1R,3S)-3-ethylcarbamoyl-cyclopentyl)-methyl-amide] | > 6.52
CCNC(=O)[C@H]1CC[C@@H](N(C)C(=O)c2ccc(-c3ccccc3S(C)(=O)=O)cc2)C1 [Compound A59, 2′-methanesulfonyl-biphenyl-4-carboxylic acid ((1R,3S)-3-ethylcarbamoyl-cyclopentyl)-methyl-amide] | > 6.52
CCNC(=O)[C@H]1CC[C@@H](N(C)C(=O)c2ccc(-c3ccccc3S(=O)(=O)NC(C)(C)C)cc2)C1 [Compound A60, 2′-tert-butylsulfamoyl-biphenyl-4-carboxylic acid ((1R,3S)-3-ethylcarbamoyl-cyclopentyl)-methyl-amide] | 4.30 to 5.52
CCNC(=O)[C@H]1CC[C@@H](N(C)C(=O)c2ccc(-c3ccccc3S(N)(=O)=O)cc2)C1 [Compound A61, 2′-sulfamoyl-biphenyl-4-carboxylic acid ((1R,3S)-3-ethylcarbamoyl-cyclopentyl)-methyl-amide] | > 6.52
CCNC(=O)[C@H]1CC[C@@H](N(C)C(=O)c2ccc(-c3ccc(Cl)cc3)cc2)C1 [Compound A62, 4′-chloro-biphenyl-4-carboxylic acid ((1R,3S)-3-ethylcarbamoyl-cyclopentyl)-methyl-amide] | > 6.52
